Source: patent publication US9504702B2, “Methods of inhibition of protein fucosylation in vivo using fucose analogs” (Seattle Genetics, Inc., priority 2010, dated 2016)
Where two headings read alike, the source gives them in different places.

Legend:
[1] = test system: antibody core fucosylation (CHO DG44 cell line producing humanized IgG1 anti-CD70 antibody h1F6); test: Inhibition of antibody core fucosylation in CHO DG44 cell culture producing h1F6; format: cell-based; conditions: day 5, CHO DG44 h1F6; for Inhibition at 50 μM: 50 μM fucose analog, read-out: Inhibition at 50 μM; for inhibition at 1000 µM: 1 mM fucose analog
Method: Fucose analogs have been evaluated for their effect on antibody core fucosylation at concentrations of 50 μM and 1 mM generally as described in Published US Patent Application 2009-0317869. Briefly, the protocol was as follows: A CHO DG44 cell line producing a humanized IgG1 anti-CD70 monoclonal antibody, h1F6 (see International Patent Publication WO 06/113909) was cultured at 7.5×10^5 cells per mL in 2 mLs of CHO culture media at 37°, 5% CO2 and shaking at 100 RPM in a 6 well tissue culture plate. Media was supplemented with insulin like growth factor (IGF), penicillin, streptomycin and either 1 mM or 50 μM of the fucose analog. On day 5 post inoculation, the culture was centrifuged at 13000 RPM for 5 minutes to pellet the cells; antibodies were then purified from supernatant.
Antibody purification was performed by applying the conditioned media to protein A resin pre-equilibrated with 1× phosphate buffered saline (PBS), pH 7.4. After washing resin with 20 resin bed volumes of 1×PBS, antibodies were eluted with 5 resin bed volumes of Immunopure IgG elution buffer (Pierce Biotechnology, Rockford, Ill.). A 10% volume of 1M Tris pH 8.0 was added to neutralize the eluted fraction.

[2] = test system: LP-1, a human multiple myeloma cell line (IgG fucosylation); test: Fucosylation of LP-1-generated IgG, AOL dot blot; format: cell-based
Method: To further evaluate the activities of different fucose analogs, 48 different fucose analogs and other four glycosylation inhibitors were tested for their ability to affect the fucosylation the LP-1-generated IgG. LP-1 cells (250,000 cells/mL, 3 mL per compound in 6-well plates) were incubated with 100 μM of each fucose analog for 5 days at 37° C. with a humidified atmosphere of 5% CO2 in IgG-depleted tissue culture media (90% RPMI with 10% IgG-depleted heat inactivated FBS). The IgG was isolated as described above using only 0.5 mL of MabSelect™ protein A resin slurry and one spin cup per sample with elution in 400 μL of IgG elution buffer into 25 μL of 9 M Tris buffer, pH 9. The eluates were concentrated to 10-20 μL per sample and 2 μL of each of the concentrated eluates were dotted onto a nitrocellulose membrane and stained with Ponceau S to estimate and adjust the sample loading for AOL staining. From this estimation of total protein in each sample, approximately 0.5 μg of each sample was dotted onto the membrane, air-dried, and stained with Ponceau S. An image of this stained membrane was captured using an Alpha Innotech FlourChem® Q system. The membrane was then blocked with 5% Bovine Serum Albumin (BSA) in Tris Buffered Saline (TBS) for 1 hr, washed with TBST (TBS with […]) 3 times and then incubated with 5 μg/ml biotinylated-AOL for 1 hr. The membrane was washed again with TBST 3 times, followed by Streptavidin-HRP incubation for 30 min and final washes with TBST 3 times.

[3] = test system: LP-1 cells (IgG heavy chain fucose signal); test: Fucosylation of LP-1 IgG, SDS-PAGE/Western blot with biotinylated AOL; format: cell-based, human; conditions: for AOL signal on IgG heavy chain, SDS-PAGE/Western blot: 50 μM, LP-1 cells, versus untreated cells; for inhibition of fucosylation of antibody (AOL signal): IgG isolated from LP-1 culture
Excerpt: The ability of different fucose analogs to inhibit the fucosylation of IgG antibodies produced by human myeloma cells as well as the fucosylation of surface proteins of human cancer cell lines was investigated. In a first study, the ability of fucose analogs to inhibit fucosylation of IgG produced by the cell line LP-1, a human multiple myeloma cell line, was investigated. The antibodies produced by, and found in the culture medium of, untreated LP-1 cells were confirmed to be of the IgG type by western blot using anti-human IgG detection (data not shown). This was accomplished by growing 20 mL of LP-1 cells in a T-75 culture flask (250,000 cells/mL) for 5 days at 37° C. in a humidified atmosphere of 5% CO2 in IgG-depleted tissue culture media (90% RPMI with 10% IgG-depleted heat inactivated FBS). Harvest of the cells was by centrifugation (200×g, 4° C., 5 min), and the culture medium was collected. The medium was filtered through a 0.22 μm filter and then incubated with 1 mL of a 50% MabSelect™ protein A resin slurry in PBS at 4° C. with rotation overnight to capture the IgG. The resin slurry was allowed to settle and most of the medium was removed. The resin slurry was transferred with ˜0.5 mL media to two cellulose acetate filter spin cups and was centrifuged at 5000×g for 1 min. The resin bed was then washed 3 times with 0.5 mL PBS. The IgG was eluted with 700 μL of Pierce IgG elution buffer (into with 52 μL of 9 M Tris buffer, pH 9.5 to adjust the pH after elution). The resulting elution was transferred to a 10,000 MW cutoff centrifugal concentrator and the sample was concentrated to approximately 20 μL. 1 μL of the concentrated sample was loaded on an SDS polyacrylamide gel for separation followed by blotting onto nitrocellulose membrane. Staining of the blot for total protein was with Ponceau S and for identification of isotype with anti-human IgG antibody.
Antibody fucosylation can also be determined using a biotin-labeled Aspergillus oryzae L-fucose-specific lectin (AOL), which binds specifically to the α-1,6-linked fucose of the antibody. This method for fucose detection works for both blotted protein that has either been separated by SDS-PAGE or for protein that has been applied to nitrocellulose without separation. The […] signal generated using the AOL-biotin conjugate with streptavidin-HRP binding and ECL detection can be quantitated using an Alpha Innotech FlourChem® Q system.
The three analogs chosen were used at a concentration of 50 μM. These analyses compared the activity of 2-fluorofucose (SGD-2083), 2-fluorofucose peracetate (SGD-2084), and alkynyl fucose peracetate (SGD-1890) with antibody from untreated cells.

Question: Which Inhibition at 50 μM ([1]; 120 h) does the source give for C#CC(OC(C)=O)[C@@H](OC(C)=O)[C@@H](OC(C)=O)[C@@H](C=O)OC(C)=O (some centres unmarked) [SGD-1890, 5-ethynylarabinose tetraacetate] here?
Answer: Its Inhibition at 50 μM is greater than 80%.

Question: And the inhibition at 1000 µM ([1]; 120 h)?
Answer: Its inhibition at 1000 µM is greater than 80%.

Question: What about the “inhibition of IgG fucosylation in human cells (decrease in AOL signal, dot blot)” value ([2]; 100 μM, LP-1 cells) of the same molecule?
Answer: The value was “potentially strong inhibitors”.

Question: What about the “dot blot results (% fucose signal of control)” value ([2]; LP-1-generated IgG, 100 μM) of the same molecule?
Answer: The value was ~1 % fucose signal of control.

Question: And the “AOL signal on IgG heavy chain, SDS-PAGE/Western blot” value [3]?
Answer: Its value is “did not show reactivity with the biotinylated AOL”.

Question: What about the “inhibition of fucosylation of antibody (AOL signal)” value [3] of the same molecule?
Answer: The value was “did”.

Question: How did the Inhibition at 50 μM ([1]; CHO-DG44, 120 h) turn out when C[C@H](O)[C@@H](O)[C@@H](O)[C@H](F)C=O [SGD-2083, 2-fluoro-2-deoxy fucose] was run?
Answer: The Inhibition at 50 μM was greater than 80%.

Question: What about the inhibition at 1000 µM ([1]; CHO-DG44, 120 h) of the same molecule?
Answer: The inhibition at 1000 µM was greater than 80%.

Question: What about the activity at 100 µM ([2]; Homo sapiens, LP-1, 120 h, 5 days, LP-1 cells, AOL dot blot, multiple samples separated by semicolon, read-out: % of control fucosylated IgG value) of the same molecule?
Answer: The activity at 100 µM was 66%.

Question: And the “AOL signal on IgG heavy chain, SDS-PAGE/Western blot” value [3]?
Answer: Its value is “no apparent change in the AOL signal”.

Question: What about the “inhibition of fucosylation of antibody (AOL signal)” value [3] of the same molecule?
Answer: The value was “did not inhibit fucosylation of antibody”.
